Data reported in US20210308028A1, “Compositions and Methods for Maintaining and Protecting Tissue Integrity and Barrier Function” (Colgate-Palmolive Company, priority 2020, published 2021).

How the values were obtained:
[1] = test system: B11 immortalized human gingival keratinocyte cell line; experiment: Transepithelial electrical resistance (TER) of gingival keratinocyte barrier; type: cell-based; details: no challenge; dilutions 1/500, 1/1000, 1/2000 or 0.025-0.2%; multiple time points; FIGS. 6, 9, 12
Protocol: (§1) Tight junction integrity was assessed by determining the trans-epithelial electrical resistance (TER). B11 gingival keratinocytes were seeded onto Costar™ Transwell™ clear polyester membrane inserts (6.5-mm diameter; 0.4-μm pore size; Corning Co., Cambridge, Mass., USA) at 3×10^5 cells per insert. The basolateral and apical compartments were filled with 0.6 mL and 0.1 mL of complete K-SFM, respectively. Following a 72-h incubation, the conditioned medium was replaced with antibiotic-free K-SFM, and the cells were incubated for a further 16 h. The TER values were measured using an Ohm/voltmeter (EVOM2; World Precision Instruments, Sarasota, Fla., USA) at 0, 4, 8, 24, 48, and 72 h. Resistance values were calculated in Ohms (Ω)/cm 2 by multiplying the resistance values by the filter surface area. Results were expressed as percentage of the basal control values measured at time 0 h (100% values) for each condition.

[2] = test system: B11 gingival keratinocytes challenged with P. gingivalis; type: cell-based, human; details: P. gingivalis MOI=10^4; Example 4, FIGS. 15, 18, 21
Protocol: as §1

[3] = test system: B11 gingival keratinocytes challenged with P. gingivalis; experiment: Paracellular permeability to FITC-dextran with P. gingivalis challenge; type: cell-based, human; details: P. gingivalis MOI=10^4; over 48 h; FIGS. 16, 19, 22
Protocol: (§2) The ability of test composition samples to enhance epithelial barrier integrity was assessed by monitoring the paracellular transport of FITC-conjugated 4.4-kDa dextran (FD-4; Sigma-Aldrich Canada Ltd.) across the keratinocyte layer. Briefly, B11 cells were cultured on Transwell filters, and FD-4 ([…] in culture medium) was added in the apical compartment in the presence of the test composition under investigation. Fluorescence in the basolateral compartment was measured at 0, 4, 8, 24, and 48 h using a Synergy 2 microplate reader (BioTek Instrument, Winooski, Vt., USA).
Briefly, B11 cells were cultured on Transwell™ filters, and FD-4 (1 mg/mL in culture medium) was added to the apical compartment in the presence of the test compounds. The presence of FD-4 in the basolateral compartment was determined at 0, 2, 6, 24, and 48 h by measuring the fluorescence (RUF; excitation wavelength 495 nm; emission wavelength 525 nm) using a Synergy 2 microplate reader.

[4] = test system: zonula occludens-1 and occludin in gingival keratinocytes challenged with P. gingivalis; experiment: Immunofluorescence of tight junction proteins with P. gingivalis challenge; type: cell-based, human; details: Example 4, FIGS. 17, 20, 23
Protocol: Gingival keratinocytes treated as described above for 12 h were immunostained for zonula occludens-1 and occludin, two tight junction proteins. Briefly, the cells were fixed in 50 mM phosphate-buffered saline (pH 7.2) (PBS) containing 4% paraformaldhehyde for 20 min, permeabilized with 0.1% Triton X-100 for 10 min, and blocked in 3% non-fat milk in 20 mM Tris-HCl (pH 8), 150 mM NaCl, and 0.5% Tween 20 for 40 min. The cells were incubated with 2.5 μg/mL of either occludin antibody-Alexa Fluor® 488 conjugate or ZO-1 antibody-Alexa Fluor® 594 conjugate in blocking buffer overnight at 4° C. After washing with PBS, the cells were then treated with ProLong® Diamond antifade (Life Technologies). The slides were sealed with nail polish and were kept in the dark at 4° C. The localization of tight junction proteins in B11 cells was visualized using an Olympus FSX100 fluorescence microscope and FSX-BSW imaging software (Olympus, Tokyo, Japan). Immunofluorescent staining of tight junction proteins is a qualitative assay.
The gingival epithelium, a stratified squamous tissue that acts as an interface between the external environment and the underlying connective tissue, plays an active role in maintaining oral health. […] The capability of test compositions to protect oral tissue from perio-pathogenic bacteria caused tissue damage was assessed using the methodology set out in Example 2. […]

[5] = test system: B11 gingival keratinocytes treated with TNF-α; experiment: FITC-dextran paracellular transport with TNF-α challenge; type: cell-based, human; details: Example 5, FIGS. 25, 28, 31, 32; S1: the two higher percentages
Protocol: as §2
Assays exposed cells to either TNFα only or TNFα+test composition. TNFα is known to cause tissue damage. A stock solution of recombinant TNF-α is prepared in sterile distilled water at 100 μg/ml. Thereafter, dilutions are made in keratinocyte culture medium. First dilution is 1/1000 to obtain 100 ng/ml. TNF-α and the test compounds are added simultaneously.
Gingival keratinocytes were cultured in the apical chamber of Transwell™ inserts as described above. Immediately after adding fluorescein isothiocyanate-conjugated dextran of 4.4 kDa (FD-4; 1 mg/ml in culture medium) to the apical compartment, the formulations under investigation were added in presence of recombinant TNF-α (100 ng/ml). Fluorescence in the basolateral compartment was recorded after 0, 2, 6, 24, and 48 h of incubation using a Synergy 2 microplate reader (BioTek Instruments; Winooski, Vt., USA).

[6] = test system: P. gingivalis collagenase; experiment: Proteolytic assay: collagen DQ degradation by P. gingivalis culture supernatant; type: biochemical, Porphyromonas gingivalis; details: Example 6, FIGS. 35, 38, 41; over 5 hours
Protocol: To determine the effects of formulations tested on the proteinase activity of P. gingivalis, a 48-h culture was centrifuged at 10 000×g for 10 min. […] The fluorescence corresponding to collagen degradation was monitored using a Synergy 2 microplate reader, with the excitation and emission wavelengths set at 495 nm and 525 nm, respectively. Test compounds or the fluorescent substrate alone were used as controls. For the proteolytic assay, the following ratio was used: 40% P. gingivalis supernatant+40% test compounds+20% DQ collagen. […]
To determine the effects of the Dual Zinc plus Arginine aqueous solution and dentifrice on the proteinase activity of P. gingivalis, a 48-h culture was centrifuged at 10 000×g for 10 min. Assay mixtures containing equal volumes of P. gingivalis culture supernatant, the fluorescent substrate collagen DQ™ (100 μg/mL; Molecular Probes, Eugene, Oreg., USA), and the Dual Zinc […] The fluorescence corresponding to collagen degradation was monitored using a Synergy 2 microplate reader, with the excitation and emission wavelengths set at 495 nm and 525 nm, respectively. Test compounds or the fluorescent substrate alone were used as controls. Leupeptin (1 μM) was used as a positive inhibitory control.

SMILES | TER measured as a percent of the initial value [1] | TER with P. gingivalis challenge [2] | paracellular permeability to FITC-dextran with P. gingivalis [3] | immunofluorescence of tight junction proteins with P. gingivalis [4] | TNFα-induced paracellular permeability to FITC-dextran [5] | inhibition of P. gingivalis collagenase activity [6]
O=C([O-])CC(O)(CC(=O)[O-])C(=O)[O-].O=C([O-])CC(O)(CC(=O)[O-])C(=O)[O-].[Zn+2].[Zn+2].[Zn+2] [zinc citrate] | increase in TER values with the increase in sample concentration | protects tissue integrity from damage by P. gingivalis | decreased with the increase in concentration of zinc citrate | protects barrier integrity from the deleterious effects caused by the presence of P. gingivalis | protects oral tissue integrity from the deleterious effects caused by the presence of TNFα | inhibits collagenase activity of P. gingivalis in a dose response manner
[O]=[Zn] [zinc oxide] | increase in TER values with the increase in sample concentration | protects tissue integrity from damage by P. gingivalis | decreased with the increase in concentration of zinc oxide | protects barrier integrity from the deleterious effects caused by the presence of P. gingivalis | protects oral tissue integrity from the deleterious effects caused by the presence of TNFα | inhibits collagenase activity of P. gingivalis in a dose response manner
